Measured values: patent publication US4973465A, “Microcrystals comprising an active substance having an affinity for phospholipids, and at least one phospholipid, process of preparation” (priority 1986, dated 1990)
≈ marks a conversion by molar mass, not a printed value.

Tested on: infected macrophages
Assay: in vitro activity relative to infected macrophages, microcrystals containing cholesterol
Format: cell-based

C[C@@H]1[C@H](O)[C@@H](C)/C=C/C=C/C=C/C=C/C=C/C=C/C=C/[C@H](O[C@@H]2O[C@H](C)[C@@H](O)[C@H](N)[C@@H]2O)C[C@@H]2O[C@](O)(C[C@@H](O)C[C@@H](O)[C@H](O)CC[C@@H](O)C[C@@H](O)CC(=O)O[C@H]1C)C[C@H](O)[C@H]2C(=O)O [control amphotericin B, amphotericin B]
MIC on infected macrophages: 0.4 µM (≈ 0.37 µg/mL)
